Test results: US20250154144A1 (CHILDREN'S HOSPITAL MEDICAL CENTER, priority 2021, published 2025)
Where two headings read alike, the source gives them in different places.

What was measured:
MOLM14 F691L cells = assay: cells; type: cell-based; details: 48 hours, Cell Titer Glo, read-out: MOLM14 F691L IC50
FLT3 = molecular target: T1, FLT3 (Homo sapiens, UniProt P36888); assay: RBC HotSpot Kinase Assay, FLT3
T1 sequence (P36888 610-943 limits assumed): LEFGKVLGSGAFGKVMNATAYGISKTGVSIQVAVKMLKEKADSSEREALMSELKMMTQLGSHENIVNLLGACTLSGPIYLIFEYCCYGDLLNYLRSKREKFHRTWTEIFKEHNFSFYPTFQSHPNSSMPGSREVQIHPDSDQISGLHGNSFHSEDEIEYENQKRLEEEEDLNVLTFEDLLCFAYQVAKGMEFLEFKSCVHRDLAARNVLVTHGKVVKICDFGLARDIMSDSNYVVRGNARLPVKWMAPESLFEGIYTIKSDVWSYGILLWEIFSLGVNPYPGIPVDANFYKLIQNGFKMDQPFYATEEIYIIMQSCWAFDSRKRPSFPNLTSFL

IRAK1 = IRAK1 (Homo sapiens, UniProt P51617); assay: RBC HotSpot Kinase Assay, IRAK1; details: IRAK1 IC50
Sequence of IRAK1 (P51617 whole entry): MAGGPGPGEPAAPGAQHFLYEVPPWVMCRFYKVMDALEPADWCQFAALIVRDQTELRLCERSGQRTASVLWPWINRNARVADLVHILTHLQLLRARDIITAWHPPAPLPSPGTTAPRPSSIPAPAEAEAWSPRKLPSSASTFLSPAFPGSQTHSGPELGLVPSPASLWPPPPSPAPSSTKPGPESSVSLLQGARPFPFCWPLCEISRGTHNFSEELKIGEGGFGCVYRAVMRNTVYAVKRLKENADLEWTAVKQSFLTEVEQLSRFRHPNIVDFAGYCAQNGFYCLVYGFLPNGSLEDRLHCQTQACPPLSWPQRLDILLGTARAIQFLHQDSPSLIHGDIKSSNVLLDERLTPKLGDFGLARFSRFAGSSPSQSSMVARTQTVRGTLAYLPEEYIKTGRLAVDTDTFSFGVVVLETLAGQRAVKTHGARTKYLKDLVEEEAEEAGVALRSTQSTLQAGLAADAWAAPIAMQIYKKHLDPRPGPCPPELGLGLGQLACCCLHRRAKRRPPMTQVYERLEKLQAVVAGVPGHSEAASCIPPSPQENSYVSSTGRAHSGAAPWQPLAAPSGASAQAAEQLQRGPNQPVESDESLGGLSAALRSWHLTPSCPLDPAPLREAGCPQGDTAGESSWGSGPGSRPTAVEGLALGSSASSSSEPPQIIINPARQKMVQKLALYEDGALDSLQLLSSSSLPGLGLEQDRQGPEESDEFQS

MOLM14 D835Y cells = assay: cells; type: cell-based; details: 48 hours, Cell Titer Glo, read-out: MOLM14 D835Y IC50
IRAK4 = molecular target: T2, IRAK4 (Homo sapiens, UniProt Q9NWZ3); assay: RBC HotSpot Kinase Assay, IRAK4; details: IRAK4 IC50
T2 sequence (Q9NWZ3 1-460): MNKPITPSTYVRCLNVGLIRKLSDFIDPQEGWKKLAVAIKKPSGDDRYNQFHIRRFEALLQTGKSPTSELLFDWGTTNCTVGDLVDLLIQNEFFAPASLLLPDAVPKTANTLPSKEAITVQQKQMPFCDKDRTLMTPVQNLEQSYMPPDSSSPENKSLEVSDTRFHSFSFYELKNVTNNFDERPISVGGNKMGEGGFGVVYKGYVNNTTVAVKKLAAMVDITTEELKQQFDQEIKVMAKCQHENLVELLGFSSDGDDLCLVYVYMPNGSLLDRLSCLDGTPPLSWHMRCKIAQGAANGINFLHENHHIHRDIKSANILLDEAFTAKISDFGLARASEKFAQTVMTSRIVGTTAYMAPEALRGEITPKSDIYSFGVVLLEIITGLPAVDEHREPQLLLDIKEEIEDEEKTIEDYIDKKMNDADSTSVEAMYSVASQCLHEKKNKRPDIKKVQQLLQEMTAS

| IC50 (MOLM14 F691L cells) [nM] | IC50 (FLT3; read-out: FLT3 IC50) [nM] | IC50 (IRAK1) [nM] | IC50 (MOLM14 D835Y cells) [nM] | IC50 (IRAK4) [nM] | IC50 (MOLM14 F691L cells; Homo sapiens, MOLM-14, 48 h) [nM] | IC50 (FLT3; FLT3 IC50) [nM] | IC50 (MOLM14 D835Y cells; Homo sapiens, MOLM-14, 48 h) [nM] | SMILES |
| --- | --- | --- | --- | --- | --- | --- | --- | --- |
| – | – | 262 | – | 40 | 1720 | 9 | 1090 | CC(O)(c1cn2c(-c3cncc(N[C@H]4CNC[C@@H]4F)n3)cnc2cn1)C(F)(F)F (single isomer, unassigned) [Compound 75] |
| 344 | – | 29 | 217 | 4 | – | 3 | – | CC(O)(c1cn2c(-c3cncc(N[C@@H]4CCCNC4)n3)cnc2cn1)C(F)(F)F (single isomer, unassigned) [Compound 74] |
| – | – | 68 | – | 12 | 344 | < 0.5 | 39 | O=C1CCCN1c1cn2c(-c3ccnc(N[C@@H]4CCCNC4)n3)cnc2cn1 [Compound 47, (R)-1-(3-(2-(piperidin-3-ylamino)pyrimidin-4-yl)imidazo[1,2-a]pyrazin-6-yl)pyrrolidin-2-one] |
| – | – | 85 | – | 5 | 109 | < 0.5 | 43 | c1cn2c(-c3cncc(N[C@@H]4CCCNC4)n3)cnc2cc1OC1CC1 [Compound 11, (R)-6-(7-cyclopropoxyimidazo[1,2-a]pyridin-3-yl)-N-(piperidin-3-yl)pyrazin-2-amine] |
| – | – | 10 | – | 5 | 1090 | < 0.5 | 86 | FC(F)Oc1ccn2c(-c3ccnc(N[C@H]4CNC[C@@H]4F)n3)cnc2c1 [Compound 34, 4-(7-(difluoromethoxy)imidazo[1,2-a]pyridin-3-yl)-N-((3S,4S)-4-fluoropyrrolidin-3-yl)pyrimidin-2-amine] |

The remaining lines, values behind:

| SMILES | IC50 (MOLM14 F691L cells) [nM] | IC50 (FLT3; read-out: FLT3 IC50) [nM] | IC50 (IRAK1) [nM] | IC50 (MOLM14 D835Y cells) [nM] | IC50 (IRAK4) [nM] | IC50 (MOLM14 F691L cells; Homo sapiens, MOLM-14, 48 h) [nM] | IC50 (FLT3; FLT3 IC50) [nM] | IC50 (MOLM14 D835Y cells; Homo sapiens, MOLM-14, 48 h) [nM] |
| --- | --- | --- | --- | --- | --- | --- | --- | --- |
| CC(O)(c1cn2c(-c3cncc(N[C@H]4CNCC[C@@H]4F)n3)cnc2cn1)C(F)(F)F (single isomer, unassigned) [Compound 78] | 386 | < 0.5 | 7 | 193 | < 0.5 | – | – | – |
| FC(F)Oc1ccn2c(-c3cncc(N[C@@H]4CCCNC4)n3)cnc2c1 [Compound 14, (R)-6-(7-(difluoromethoxy)imidazo [1,2-a]pyridin-3-yl)-N-(piperidin-3-yl)pyrazin-2-amine] | – | – | 447 | – | 12 | 193 | 0.8 | 86 |
| CC(O)(c1cn2c(-c3cncc(N[C@@H]4CCCNC4)n3)cnc2cn1)C(F)(F)F (single isomer, unassigned) [Compound 73] | 969 | – | 91 | 612 | 37 | – | 8 | – |
| COc1cc2ncc(-c3cncc(N[C@H]4CNC[C@@H]4F)n3)n2cc1C(C)(C)O [Compound 19, 2-(3-(6-(((3S,4S)-4-fluoropyrrolidin-3-yl)amino)pyrazin-2-yl)-7-methoxyimidazo[1,2-a]pyridin-6-yl)propan-2-ol] | – | – | 3 | – | 0.8 | 193 | < 0.5 | 109 |
| FC(F)COc1ccn2c(-c3ccnc(N[C@H]4CNC[C@@H]4F)n3)cnc2c1 [Compound 31, 4-(7-(2,2-difluoroethoxy)imidazo[1,2-a]pyridin-3-yl)-N-((3S,4S)-4-fluoropyrrolidin-3-yl)pyrimidin-2-amine] | – | – | 9 | – | 0.7 | 344 | < 0.5 | 15 |
| FC(F)COc1ccn2c(-c3cncc(N[C@@H]4CCCNC4)n3)cnc2c1 [Compound 8, (R)-6-(7-(2,2-difluoroethoxy)imidazo[1,2-a]pyridin-3-yl)-N-(piperidin-3-yl)pyrazin-2-amine] | – | – | 42 | – | < 0.5 | 39 | < 0.5 | 14 |
| FC(F)Oc1ccn2c(-c3cncc(N[C@H]4CNC[C@@H]4F)n3)cnc2c1 [Compound 13, 6-(7-(difluoromethoxy)imidazo [1,2-a]pyridin-3-yl)-N-((3S,4S)-4-fluoropyrrolidin-3-yl)pyrazin-2-amine] | – | – | 86 | – | 21 | 864 | 1 | 307 |
